Measured values published in US20070059299A1, “S-adenosyl methionine decarboxylase inhibition for the treatment of a herpes simplex virus infection” (Institut National de la Sante et de la Recherche Medicale …, priority 2002, published 2007).

Tests used:
[1] = tested on: HSV-1 clinical acyclovir or foscarnet resistant isolates
intracellular spermine = assay: Spermine quantitation in HEp2 cells exposed to MGBG (dansylation, RP-HPLC); assay type: cell-based; details: for Relative amount of intracellular spermine, HSV infected + MGBG / Relative amount of intracellular spermine, Mock infected + MGBG: HEp2 cells, mock-infected cells without MGBG = 100%, means±SE, 3 experiments; for Relative amount of intracellular spermine, HSV infected + MGBG: 100 μM MGBG added with virus
Experimental: HEp2 cells were grown in 6-well plates (˜10^6 cells/well). Cells were infected or treated with 100 μM MGBG for 12 h or 24 h. For HSV-1-infected cells, MGBG was added simultaneously with viral suspension. Cell extracts and standards (spermine and diaminoheptane as an internal standard, (DAH)) were dansylated according to the procedure described by Seiler (Seiler, 1970) and were then treated using the protocol adapted from Besson (Besson et al., 1986). Dansylation was proceeded in glass vials by mixing 40 μl of HClO4 extracts, 10 μl of DAH , and 100 μl of 0.3 M Na2CO3 (Merck). The reaction was initiated by adding 200 μl of freshly prepared dansyl chloride solution (5mg/ml) in acetone (SDS, spectrosol grade) and allowed to proceed overnight in the dark at room temperature. After dansylation, each sample was diluted with 700 μl H2O, vortexed and applied to a Waters Sep-Pak C18 cartridge (Birnbaum et al., 1988). After washing with 4 ml of 20% methanol, the polyamine containing fraction was eluted with 2 ml of 100% methanol. The separation of polyamines and the quantification of spermine were performed by reverse phase high performance chromatography (RP-HPLC) using a Waters system composed of two models 510 pumps, a Wisp 700 autosampler and a NEC APC4 data module recorder integrator. A Merck F 1050 fluorescence spectrophotometer detected fluorescence (350 nm excitation and 495 nm emission). The separations were performed on a RP18 Merck Lichrocart (25×4 mm, 5 μm) precolumn and a RP18, 100 CH Merck column (125×4 mm; spherical packing 5 μm). The solvent system was an acetonitrile/water gradient at a flow rate of 1 ml/min of acetonitrile 60% in water for 7 min, then acetonitrile 90% for 10 min and a 98% acetonitrile purge for 5 min. The column was reequilibrated to initial 60% acetonitrile conditions during 10 min between two successive injections. For each determination, 50 or 100 μl of dansylated samples were injected onto the column equilibrated in 60% acetonitrile. Spermine was identified by its retention time compared to that of standard spermine. Peak areas were automatically measured by the integrator and evaluated according to the calibration method (Birnbaum et al., 1988). Spermine standard from 10 to 70 pmol was reacted and chromatographed to establish linear standard curve which was used to estimate the absolute amounts of spermine. The absolute limit of detection per injection was 1 pmol for dansylated spermine. Two blank injections were routinely run between calibrations and sample analysis. Mock-infected cells grown in the absence of MGBG were used as the control of intracellular spermine content and was therefore used as 100% value.
MGBG is known to alter the polyamine synthesis in inactivating SAMDC. Therefore, the amount of intracellular spermine was assessed in mock-infected and infected cells after MGBG exposure. Cells were grown for 12 h and 24 h in the presence of 100 μM MGBG which was added to cell medium simultaneously with virus particles for HSV-1 infected cells. Intracellular spermine content was estimated by standard procedure (Besson et al., 1986; Birnbaum et al., 1988; Seiler, 1970).

[2] = tested on: acyclovir-resistant reference strain DM21; assay: Antiviral susceptibility testing by ELISA on HEp-2 cells, strain DM21; assay type: cell-based, HSV 1; details: HEp-2 cells, ELISA; median of at least three assays; drugs diluted in μM; read-out: Susceptibility of strain DM21 (concentration causing 50% inhibition of viral replication, IC50), median
Experimental: Three HSV 1 reference strains were tested : SC16 (acyclovir-susceptible reference strain; (Hill et al., 1975)), DM21 (acyclovir-resistant reference strain derived from SC16; (Efstathiou et al., 1989)) and TP 2.5 (foscarnet-resistant reference strain derived from SC16; (Larder and Darby, 1985)). Antiviral assays were performed in duplicate on HEp-2 cells seeded in 96 wells microplates. Dilutions of virus and drugs were prepared in E-MEM without FCS. Cells were first treated for 24 hours with MGBG using a series of 6 twofold serial dilutions from 12.5 to 400 μM. Infection was then achieved with 5 tenfold dilutions of cell-associated virus (10^−1 to 10^−5). Each dilution was incubated with a series of 6 concentrations of each antiviral drug (from 12.5 to 400 μM in twofold dilutions for MGBG, from 0.16 to 500 μM in fivefold dilutions for acyclovir and from 31 to 1000 μM in twofold dilutions for foscarnet). […] After incubation at 36° C. with 5% CO2 for 24 hours post-infection, medium was replaced with freshly prepared dilutions of MGBG. Viral multiplication was checked 24 hours afterwards by an ELISA (Morfin et al., 1999), using a rabbit monoclonal anti-HSV 1 antibody (BO 114, Dako) and a protein A peroxidase-conjugated (BioRad). The substrate, 2,2′-azino-di(3-ethyl-benzthiazoline) sulfonic acid (ABTS) diluted in ABTS buffer (Boehringer, Mannheim), was added to each well. After 30 min at room temperature, the plates were briefly agitated and optical densities were read at 405 nm with a multichannel spectrophotomoter (Titertek-Multiskan). Optical density values were used with the Biolise program (Life Sciences International) to calculate the concentration of the drug causing a 50% inhibition of viral replication (IC50) by logistic regression analysis.
The capacity of MGBG to preclude infection of three HSV-1 acyclovir and/or foscarnet resistant strains was tested. The reference strains used in this study were the SC16 acyclovir-susceptible reference strain, the DM21 acyclovir-resistant reference strain derived from SC16 and the TP 2.5 foscarnet-resistant reference strain derived from SC16 (Efstathiou et al., 1989; Hill et al., 1975; Larder and Darby, 1985). In each experiment, dose response curves were constructed for […], for acyclovir, and for MGBG. The ED values were determined.

CC(C=NNC(=N)N)=NNC(=N)N [MGBG, methylglyoxal bis(guanylhydrazone)]
replication of HSV-1 clinical acyclovir or foscarnet resistant isolates [1]: inhibited replication | amount of intracellular spermine relative to control mock-infected cells grown without MGBG (intracellular spermine; 100 μM MGBG, both mock-infected and HSV-1-infected cells): 60-65% | Relative amount of intracellular spermine, HSV infected + MGBG (intracellular spermine; 12 h): 61.8 ± 9.0% | Relative amount of intracellular spermine, HSV infected + MGBG (intracellular spermine; 24 h): 66.2 ± 7.0% | Relative amount of intracellular spermine, Mock infected + MGBG (intracellular spermine; 100 μM MGBG, 12 h): 60.6 ± 1.4% | Relative amount of intracellular spermine, Mock infected + MGBG (intracellular spermine; 100 μM MGBG, 24 h): 65.3 ± 14.3% | IC50 [2]: 75 µM
